From ChEMBL document CHEMBL1201862, “PubChem BioAssay data set” (2004)
Active and inactive are the calls of the source.

What was measured:
[1] = biological target: T1, Heat shock factor protein 1 (Mus musculus, UniProt P38532); experiment: decrease of HSF1-responsive luciferase luminescence – cell-based, NIH3T3, dose retest, confirmation (AID 2382); format: functional;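 note: NIH3T3 fibroblasts with HSF1-driven luciferase reporter stressed by proteasome inhibitor MG132; luminescence from HSF1-driven luciferase expression after 8 hours of MG132 stress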
T1 sequence (P38532 whole entry): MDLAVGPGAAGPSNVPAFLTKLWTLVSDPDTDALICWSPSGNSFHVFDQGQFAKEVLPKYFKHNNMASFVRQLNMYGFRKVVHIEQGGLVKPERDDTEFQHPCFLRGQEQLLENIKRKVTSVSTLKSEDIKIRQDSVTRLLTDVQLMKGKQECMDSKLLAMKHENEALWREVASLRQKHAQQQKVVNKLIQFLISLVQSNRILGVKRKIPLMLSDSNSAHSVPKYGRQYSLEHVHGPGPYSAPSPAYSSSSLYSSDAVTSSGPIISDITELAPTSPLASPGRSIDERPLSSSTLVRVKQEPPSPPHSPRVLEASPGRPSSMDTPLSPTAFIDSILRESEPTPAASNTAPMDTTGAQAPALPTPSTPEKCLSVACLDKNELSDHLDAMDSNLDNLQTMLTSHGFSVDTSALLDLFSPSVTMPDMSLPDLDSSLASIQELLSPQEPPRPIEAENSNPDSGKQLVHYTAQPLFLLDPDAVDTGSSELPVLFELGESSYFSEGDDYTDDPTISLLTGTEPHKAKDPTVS

Protein RecA [2] = biological target: T2, Protein RecA (Mycobacterium tuberculosis, UniProt P9WHJ3); experiment: GFP-RecA MOA-DTT Measured in Biochemical System Using Plate Reader - 2047-05_Inhibitor_Dose_DryPowder_Activity. [Related pubchem assays (depositor defined):AID2223]; design: species or system Mycobacterium tuberculosis H37Rv
T2 sequence (P9WHJ3 whole entry): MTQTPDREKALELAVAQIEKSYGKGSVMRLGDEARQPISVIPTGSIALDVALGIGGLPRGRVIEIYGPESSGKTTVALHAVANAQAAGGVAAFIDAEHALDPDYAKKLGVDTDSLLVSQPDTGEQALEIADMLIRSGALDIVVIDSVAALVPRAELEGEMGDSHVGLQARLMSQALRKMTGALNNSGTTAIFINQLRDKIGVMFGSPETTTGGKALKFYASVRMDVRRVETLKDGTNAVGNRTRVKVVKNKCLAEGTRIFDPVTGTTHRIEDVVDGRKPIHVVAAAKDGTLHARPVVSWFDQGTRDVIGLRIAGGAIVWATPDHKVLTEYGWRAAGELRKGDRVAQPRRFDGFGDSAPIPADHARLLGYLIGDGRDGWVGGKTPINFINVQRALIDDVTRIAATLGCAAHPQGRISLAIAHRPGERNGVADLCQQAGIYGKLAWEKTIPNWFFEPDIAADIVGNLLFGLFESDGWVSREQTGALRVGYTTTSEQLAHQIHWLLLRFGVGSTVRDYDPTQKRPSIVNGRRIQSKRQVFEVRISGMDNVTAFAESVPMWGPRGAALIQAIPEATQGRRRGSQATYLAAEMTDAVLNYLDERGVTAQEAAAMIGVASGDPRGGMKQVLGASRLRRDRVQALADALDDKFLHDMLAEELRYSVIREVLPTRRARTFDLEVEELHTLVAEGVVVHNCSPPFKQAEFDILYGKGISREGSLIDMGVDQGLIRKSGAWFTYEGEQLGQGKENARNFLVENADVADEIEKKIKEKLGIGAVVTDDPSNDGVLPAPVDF

[3] = compounds quenching green fluorescent protein signal – biochemical, plate reader, dry powder, artefact control, dose response (AID 493243)
[4] = Intein inhibitors as potential Tuberculosis drugs, a cytotoxicity screen. [Related pubchem assays (depositor defined):AID2221, AID2223, AID434968, AID435010, AID449749, AID449750, AID489010]; format: functional
[5] = biological target: T3, Replicative DNA helicase DnaB (Mycobacterium tuberculosis, UniProt P9WMR3); experiment: DnaB Intein secondary assay Measured in Biochemical System Using Plate Reader - 2047-04_Inhibitor_Dose_DryPowder_Activity. [Related pubchem assays (depositor defined):AID2223]
T3 sequence (P9WMR3 whole entry): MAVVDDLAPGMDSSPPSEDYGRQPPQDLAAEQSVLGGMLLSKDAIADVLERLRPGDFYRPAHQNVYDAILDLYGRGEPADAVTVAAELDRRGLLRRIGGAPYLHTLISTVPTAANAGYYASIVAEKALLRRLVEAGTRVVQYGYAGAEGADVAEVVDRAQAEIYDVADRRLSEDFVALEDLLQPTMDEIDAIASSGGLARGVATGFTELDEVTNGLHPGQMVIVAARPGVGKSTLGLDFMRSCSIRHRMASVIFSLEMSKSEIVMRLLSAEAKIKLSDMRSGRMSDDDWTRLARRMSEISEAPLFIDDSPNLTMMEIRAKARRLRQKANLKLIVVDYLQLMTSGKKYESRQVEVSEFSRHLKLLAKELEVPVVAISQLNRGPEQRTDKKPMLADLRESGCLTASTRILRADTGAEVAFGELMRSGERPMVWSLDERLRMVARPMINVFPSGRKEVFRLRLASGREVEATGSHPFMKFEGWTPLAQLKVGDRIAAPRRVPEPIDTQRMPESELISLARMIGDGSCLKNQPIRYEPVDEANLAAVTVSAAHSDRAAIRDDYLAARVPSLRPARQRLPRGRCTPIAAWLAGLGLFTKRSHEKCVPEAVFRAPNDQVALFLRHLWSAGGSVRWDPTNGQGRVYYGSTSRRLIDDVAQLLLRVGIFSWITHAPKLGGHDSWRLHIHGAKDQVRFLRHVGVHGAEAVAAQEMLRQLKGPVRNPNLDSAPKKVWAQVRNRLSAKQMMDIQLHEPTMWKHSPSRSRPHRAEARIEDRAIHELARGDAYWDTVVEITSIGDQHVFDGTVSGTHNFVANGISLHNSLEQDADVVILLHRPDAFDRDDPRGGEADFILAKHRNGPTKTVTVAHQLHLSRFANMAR

[6] = biological target: DNA damage-inducible transcript 3 protein (Mus musculus, UniProt P35639); format: functional, Cricetulus griseus
Protein RecA [7] = biological target: T2, Protein RecA; experiment: RecA Intein Measured in Biochemical System Using Plate Reader - 2047-02_Inhibitor_Dose_DryPowder_Activity. [Related pubchem assays (depositor defined):AID2223]; design: species or system Mycobacterium tuberculosis H37Rv
[8] = biological target: T3, Replicative DNA helicase DnaB; experiment: DnaB intein splicing inhibitors, dose response, biochemical, cell-free fluorescence (AID 449749); format: functional
Protein RecA [9] = biological target: T2, Protein RecA; experiment: Fluorescence Cell-Free Homogeneous Dose Retest to Identify Inhibitors of RecA-Intein Splicing Activity. [Related pubchem assays (depositor defined):AID2097, AID2223, AID489010, AID492950]; format: functional
cells [10] = format: functional, cell-based
SUMO-activating enzyme [11] = biological target: T4, SUMO-activating enzyme (Homo sapiens, UniProt Q9UBT2); experiment: blockers of UBC9-mediated SUMO conjugation – biochemical, AlphaScreen, SUMOylation inhibitor project, confirmation (AID 2018); format: functional
SUMO-activating enzyme [12] = biological target: T4, SUMO-activating enzyme; experiment: blockers of SAE1/SAE2–UBC9 SUMO transfer – biochemical, HTRF, uHTS, primary screen (AID 2006); format: protein-complex assay
cells [13] = format: functional, cell-based; remark: listed apart in the source
[14] = Luminescence Cell-Based Dose Retest to Confirm Inhibitors of Cancer Stem Cells. [Related pubchem assays (depositor defined):AID2717, AID2721]; format: functional; conditions: Homo sapiens
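Throughout, for CC50: cells exposed to compound for 72 hours before luminescence readout.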

T4 sequence (Q9UBE0 whole entry): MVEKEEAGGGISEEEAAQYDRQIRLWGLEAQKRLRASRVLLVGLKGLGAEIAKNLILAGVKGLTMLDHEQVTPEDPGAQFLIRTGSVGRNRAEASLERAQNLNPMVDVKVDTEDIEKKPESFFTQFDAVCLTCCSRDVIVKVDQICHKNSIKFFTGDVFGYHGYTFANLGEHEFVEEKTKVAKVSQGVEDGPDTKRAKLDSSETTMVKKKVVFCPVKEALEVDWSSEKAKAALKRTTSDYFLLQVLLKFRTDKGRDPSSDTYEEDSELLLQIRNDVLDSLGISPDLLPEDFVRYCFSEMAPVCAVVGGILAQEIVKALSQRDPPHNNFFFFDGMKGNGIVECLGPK
T4 sequence (Q9UBT2 whole entry): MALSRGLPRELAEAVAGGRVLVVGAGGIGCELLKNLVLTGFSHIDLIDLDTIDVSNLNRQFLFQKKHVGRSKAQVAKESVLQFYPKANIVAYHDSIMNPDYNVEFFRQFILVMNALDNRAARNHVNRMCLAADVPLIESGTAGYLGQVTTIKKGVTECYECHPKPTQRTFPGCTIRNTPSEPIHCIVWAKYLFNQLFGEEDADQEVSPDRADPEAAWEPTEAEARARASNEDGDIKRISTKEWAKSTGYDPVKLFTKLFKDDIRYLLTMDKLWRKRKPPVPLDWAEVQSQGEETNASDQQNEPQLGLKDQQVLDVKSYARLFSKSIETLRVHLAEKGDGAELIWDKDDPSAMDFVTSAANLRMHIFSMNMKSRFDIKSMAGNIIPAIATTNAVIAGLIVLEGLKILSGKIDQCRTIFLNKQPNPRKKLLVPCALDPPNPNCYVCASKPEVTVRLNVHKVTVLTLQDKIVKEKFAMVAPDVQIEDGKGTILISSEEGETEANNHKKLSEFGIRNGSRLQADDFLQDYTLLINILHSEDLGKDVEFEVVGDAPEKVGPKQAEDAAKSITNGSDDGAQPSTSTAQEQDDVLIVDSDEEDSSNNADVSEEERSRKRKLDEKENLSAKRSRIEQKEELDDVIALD
Chain of DNA damage-inducible transcript 3 protein (P35639 whole entry): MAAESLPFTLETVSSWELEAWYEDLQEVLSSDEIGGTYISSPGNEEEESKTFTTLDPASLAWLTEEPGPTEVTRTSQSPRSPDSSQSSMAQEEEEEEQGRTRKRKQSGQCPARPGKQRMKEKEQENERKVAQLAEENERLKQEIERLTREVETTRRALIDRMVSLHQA

| Structure (SMILES) | EC50 [1] | AC50 (Protein RecA [2]) | AC50 [3] | CC50 [4] | AC50 [5] | Absolute IC50 (CHOP) [6] | AC50 (Protein RecA [7]) | AC50 [8] | EC50 (Protein RecA [9]) | EC50 (cells [10]) | IC50 (SUMO-activating enzyme [11]) | IC50 (SUMO-activating enzyme [12]) | EC50 (cells [13]) | AC50 [14] |
| --- | --- | --- | --- | --- | --- | --- | --- | --- | --- | --- | --- | --- | --- | --- |
| O=C(CCl)Nc1cn(-c2ccccc2)nc1-c1ccc(F)cc1 | 6.91 µM (active) | 29.4 µM (active) | 262 µM (active) | 6.59 µM (active) | 101 µM (active) | 10 µM | 8.58 µM (active) | 2.77 µM (active) | 2.77 µM (active) | – | – | – | – | – |
| C/C(=N\OCc1nc2ccccc2c(=O)n1/N=C/c1cc([N+](=O)[O-])ccc1O)c1ccccc1 | – | – | – | – | – | – | – | – | – | 245 µM (active) | 5.22 µM (active) | 41.1 µM (active) | > 350 µM (not active) | 7.33 µM (active) |
